PubChem BioAssay (NCI)
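Results reflect a 48-hour exposure of cells in 96-well plates to compound at five concentrations. GI50 marks 50% less growth. At the TGI there is no net growth.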

Tests used:
Test in all cases: NCI tumour cell line growth inhibition, 48 h
[1] = test system: 786-0 renal
[2] = test system: A498 renal
[3] = test system: A549 NSCLC
[4] = test system: ACHN renal
[5] = test system: BT-549 breast
[6] = test system: CAKI-1 renal
[7] = test system: CCRF-CEM leukemia
[8] = test system: COLO 205 colon
[9] = test system: DU-145 prostate
[10] = test system: HCC-2998 colon
[11] = test system: HCT-116 colon
[12] = test system: HCT-15 colon
[13] = test system: HL-60(TB) leukemia
[14] = test system: HOP-62 NSCLC
[15] = test system: HOP-92 NSCLC
[16] = test system: HS 578T breast
[17] = test system: HT29 colon
[18] = test system: IGROV1 ovarian
[19] = test system: K-562 leukemia
[20] = test system: KM12 colon
[21] = test system: LOX IMVI melanoma
[22] = test system: M14 melanoma
[23] = test system: MALME-3M melanoma
[24] = test system: MCF7 breast
[25] = test system: MDA-MB-231 breast
[26] = test system: MDA-MB-435
[27] = test system: MOLT-4 leukemia
[28] = test system: NCI-H226 lung
[29] = test system: NCI-H23 lung
[30] = test system: NCI-H460 lung
[31] = test system: NCI-H522 lung
[32] = test system: NCI/ADR-RES ovarian
[33] = test system: OVCAR-3 ovarian
[34] = test system: OVCAR-4 ovarian
[35] = test system: OVCAR-5 ovarian
[36] = test system: OVCAR-8 ovarian
[37] = test system: PC-3 prostate
[38] = test system: RPMI-8226 leukemia
[39] = test system: RXF 393 renal
[40] = test system: SF-268 CNS
[41] = test system: SF-295 CNS
[42] = test system: SF-539 CNS
[43] = test system: SK-MEL-2 melanoma
[44] = test system: SK-MEL-28 melanoma
[45] = test system: SK-MEL-5 melanoma
[46] = test system: SK-OV-3 ovarian
[47] = test system: SN12C renal
[48] = test system: SNB-19 CNS
[49] = test system: SNB-75 CNS
[50] = test system: SR leukemia
[51] = test system: SW-620 colon
[52] = test system: T-47D breast
[53] = test system: TK-10 renal
[54] = test system: U251 CNS
[55] = test system: UACC-257 melanoma
[56] = test system: UACC-62 melanoma
[57] = test system: UO-31 renal

With `CC1(C)N=C(N)N=C(N)N1c1ccc(CCCC(=O)Nc2ccc(S(=O)(=O)F)cc2)cc1` the GI50 [1] was 4.97 µM, the TGI [1] was > 100 µM and the GI50 [2] was 37.5 µM. The TGI [2] was > 100 µM, the GI50 [3] was 9.82 µM and the TGI [3] was > 100 µM. The GI50 [4] was 58.7 µM, the TGI [4] was > 100 µM and the GI50 [5] was 22.8 µM. For the same compound, the TGI [5] was > 100 µM, the GI50 [6] was 35 µM and the TGI [6] was > 100 µM. The GI50 [7] was 4.13 µM, the TGI [7] was > 100 µM and the GI50 [8] was 5.59 µM. For the same compound, the TGI [8] was > 100 µM, the GI50 [9] was 6.98 µM and the TGI [9] was > 100 µM. For the same compound, the GI50 [10] was 14.5 µM, the TGI [10] was > 100 µM and the GI50 [11] was 3.69 µM. For the same compound, the TGI [11] was > 100 µM, the GI50 [12] was 39.3 µM and the TGI [12] was > 100 µM. The GI50 [13] was 3.47 µM, the TGI [13] was > 100 µM and the GI50 [14] was 40.9 µM. The TGI [14] was > 100 µM, the GI50 [15] was 10.7 µM and the TGI [15] was > 100 µM. The GI50 [16] was > 100 µM, the TGI [16] was > 100 µM and the GI50 [17] was 2.9 µM. For the same compound, the TGI [17] was > 100 µM, the GI50 [18] was 0.57 µM and the TGI [18] was > 100 µM. For the same compound, the GI50 [19] was 2.13 µM, the TGI [19] was > 100 µM and the GI50 [20] was 3.54 µM. For the same compound, the TGI [20] was > 100 µM, the GI50 [21] was 6.03 µM and the TGI [21] was > 100 µM. For the same compound, the GI50 [22] was 5.44 µM, the TGI [22] was > 100 µM and the GI50 [23] was 24.2 µM. The TGI [23] was > 100 µM, the GI50 [24] was 5.23 µM and the TGI [24] was > 100 µM. The GI50 [25] was 45.7 µM, the TGI [25] was > 100 µM and the GI50 [26] was 3.75 µM. For the same compound, the TGI [26] was > 100 µM, the GI50 [27] was 14.2 µM and the TGI [27] was > 100 µM. For the same compound, the GI50 [28] was 63.1 µM, the TGI [28] was > 100 µM and the GI50 [29] was 8.59 µM. The TGI [29] was > 100 µM, the GI50 [30] was 0.816 µM and the TGI [30] was > 100 µM. The GI50 [31] was 8.4 µM, the TGI [31] was > 100 µM and the GI50 [32] was > 100 µM. For the same compound, the TGI [32] was > 100 µM, the GI50 [33] was 33.6 µM and the TGI [33] was > 100 µM. For the same compound, the GI50 [34] was > 62.3 µM, the TGI [34] was > 100 µM and the GI50 [35] was 12 µM. The TGI [35] was > 100 µM, the GI50 [36] was 12.9 µM and the TGI [36] was > 100 µM. For the same compound, the GI50 [37] was 0.469 µM, the TGI [37] was > 100 µM and the GI50 [38] was 5.36 µM. For the same compound, the TGI [38] was > 100 µM, the GI50 [39] was 4.22 µM and the TGI [39] was > 100 µM. The GI50 [40] was 6.59 µM, the TGI [40] was > 100 µM and the GI50 [41] was 38.6 µM. For the same compound, the TGI [41] was > 100 µM, the GI50 [42] was 2.62 µM and the TGI [42] was > 100 µM. The GI50 [43] was 46.2 µM, the TGI [43] was > 100 µM and the GI50 [44] was 16 µM. The TGI [44] was > 100 µM, the GI50 [45] was 3.2 µM and the TGI [45] was 28.1 µM. The GI50 [46] was > 100 µM, the TGI [46] was > 100 µM and the GI50 [47] was 6.15 µM. For the same compound, the TGI [47] was > 100 µM, the GI50 [48] was 36.5 µM and the TGI [48] was > 100 µM. For the same compound, the GI50 [49] was 10.2 µM, the TGI [49] was > 100 µM and the GI50 [50] was 1.53 µM. The TGI [50] was > 100 µM, the GI50 [51] was 1.99 µM and the TGI [51] was > 100 µM. The GI50 [52] was 15.8 µM, the TGI [52] was 98.2 µM and the GI50 [53] was 7.63 µM. The TGI [53] was > 100 µM, the GI50 [54] was 9.22 µM and the TGI [54] was > 100 µM. For the same compound, the GI50 [55] was 24.8 µM, the TGI [55] was > 100 µM and the GI50 [56] was 2.24 µM. The TGI [56] was > 100 µM, the GI50 [57] was > 100 µM and the TGI [57] was > 100 µM.
